In patent US5753615A, “Neuropeptides and their use as insecticides” (Queen Mary and Westfield College, priority 1993, dated 1998):
Non-standard residues stand in square brackets, D forms with d. No end group written: not given here. pGlu = O=C1CC[C@@H](C(=O)O)N1

What was measured:
[1] = test system: corpora allata of the cockroach Diploptera punctata; details: given 'in comparison'; known allatostatins of the literature; test system not restated; cited from earlier work
[2] = test system: corpora allata of the cockroach Diploptera punctata; assay type: cell-based
Procedure: Thus, it causes maximum inhibition of JH at a concentration of 1 nM, with a 50% inhibition (ED50) being achieved at 0.1 nM.

Row | Substance | ED50 (inhibition of JH production), comparison values [1] | 50% inhibition (ED50) of JH production [2]
1 | [pGlu]VRFRQCYFNPISCF-OH (cysteine pairing not given here) [allatostatin of Manduca sexta] | 2 nM | –
2 | GPPYDFGM-NH2 [Callatostatin 5, Gly-Pro-Pro-Tyr-Asp-Phe-Gly-Met-NH2] | – | 0.1 nM
